Like-named read-outs stand apart in the source and are kept apart here.

Assay [1] deals with human kidney cancer cells (A-498). Briefly: MTT tumor cell proliferation inhibition test, A-498. The note with it: read-out: Half Inhibitory Concentration IC50, A-498. In kind it is cell-based. Here is the method:
(§1) The compounds of the present invention were subjected to tumor cell proliferation inhibition test, and conventional MTT method was used.
(§2) Cell lines: human kidney cancer cells (A-498), human lung cancer cells (A-549), human brain astrocytoma cells (U-251). The culture medium was DMEM+15% NBS+double antibody.
(§3) Sample solution preparation: after dissolving with DMSO (Merck), PBS (−) was added to obtain 100 μmol/L solution or homogeneous suspension. The solution was diluted with PBS (−) in DMSO to a final concentration of 0.1, 1, 10, 20, 40, 60, 80, 100 μmol/L.
(§4) Gossypol was used as control solution, prepared under the same condition.
(§5) Cell culture: adherent growth Tumor cells were cultured in 1640 medium containing 10% inactivated neonatal bovine serum and penicillin, streptomycin (1 million U/L), placed in carbon dioxide incubator at 37° C., 5% CO2, and saturated humidity. Cells were treated serially passaged 2-3 times. The first culture was washed with PBS 2 times, and digested with trypsin. Fresh culture medium was added evenly, cells were adjusted to a appropriate concentration and transferred into a new culture flask. Cell in an exponential phase were chosen for the tests.
(§6) MTT Assay for Cell Viability and IC50 Determination:
(§7) Experimental Principle: Living cells mitochondria in the dehydrogenase can reduce yellow MTT to water-insoluble blue-violet product MT (MTT formazan), deposited in the cells. The amount of production is proportional to the number of living cells. […] DMSO can dissolve blue violet crystals, and the color depth is proportional to the amount contained, so the absorbance measured by the microplate reader can reflect the cell viability.
(§8) Methods: The exponential phase cells were digested and counted and seeded in 96-well plates at a density of 2×10^4/mL at 100 μl per well. After 24 hours of incubation, the cells to be tested were treated with 0.1, 1, 10, 20, 40, 60, 80, 100 μmol/L of the compounds. Each experimental group had 5 wells in each concentration, and the culture medium containing 0.4% DMSO was used as control. After 48 hours, the supernatant was discarded, and 100 μl of MTT ((2-(4,5-dimethyl-2-thiazolyl)-3,5-diphenyl-2H-[…]) (1 mg/mL) was added to each well. After another 4 hours, the supernatant was discarded, and 100 μl of DMSO was added to each well. After mixing, the absorbance was measured at 570 nm using a microplate reader. An IC50 calculation software was used to determine the half inhibitory concentration (IC50).

In assay [2] the test system is human lung cancer cells (A-549). The experiment in a line: MTT tumor cell proliferation inhibition test, A-549. The note with it: read-out: Half Inhibitory Concentration IC50, A-549. Format: cell-based. Here is the method: as §1, §2, §3, §4, §5, §6, §7, §8
Assay [3] relates to human brain astrocytoma cells (U-251). The experiment in a line: MTT tumor cell proliferation inhibition test, U-251. In kind it is cell-based. The note with it: read-out: Half Inhibitory Concentration IC50, U-251. Here is the method: as §1, §2, §3, §4, §5, §6, §7, §8
Assay [4] has as its system tumor cells (A-498, A-549, U-251). Briefly: MTT tumor cell proliferation inhibition test, summary in words over the cell lines tested. Format: cell-based, human. To be noted: summary of Table 1. Here is the method: as §1, §2, §8
These compounds can be used for the study of antitumor agents.

[5] abbreviates: A498, A-498 cells, MTT, 48 hours treatment.
[6] abbreviates: A549, A-549 cells, MTT, 48 hours treatment.
Where [7] appears, read: U-251 cells, MTT, 48 hours treatment.

In the case of `CC1=NN(c2ccc(C)cc2)C(=O)/C1=C\c1c(O)c(O)c(C(C)C)c2cc(C)c(-c3c(C)cc4c(C(C)C)c(O)c(O)c(C=O)c4c3O)c(O)c12` [B, (Z)-1,1′,6,6′,7,7′-hexahydroxy-5,5′-diisopropyl-3,3′-dimethyl-8′-((3-methyl-5-oxo-1-(p-tolyl)-1H-pyrazol-4(5H)-ylidene)methyl)-[2,2′-binaphthalene]-8-carbaldehyde], the IC50 in assay [1] (setting [5]) worked out at 37.6 ± 2.23 µM; in assay [2] (setting [6]), 78.4 ± 2.65 µM.

In the case of `COc1ccc(N2N=C(C)/C(=C/c3c(O)c(O)c(C(C)C)c4cc(C)c(-c5c(C)cc6c(C(C)C)c(O)c(O)c(C=O)c6c5O)c(O)c34)C2=O)cc1` [C], the IC50 is 25.3 ± 0.95 µM in assay [1] (setting [5]), more than 100 µM in assay [3] (setting [7]) and more than 100 µM in assay [2] (setting [6]).

Take `CC1=NN(c2ccccc2)C(=O)/C1=C\c1c(O)c(O)c(C(C)C)c2cc(C)c(-c3c(C)cc4c(C(C)C)c(O)c(O)c(C=O)c4c3O)c(O)c12` [Compound A, (Z)-1,1′,6,6′,7,7′-hexahydroxy-5,5′-diisopropyl-3,3′-dimethyl-8′-((3-methyl-5-oxo-1-phenyl-1H-pyrazol-4(5H)-ylidene)methyl)-[2,2′-binaphthalene]-8-carbaldehyde]: the IC50 amounted to 11.4 ± 1.03 µM in assay [1] (A498, 48 h); 10.4 ± 0.67 µM in assay [3] (U-251, 48 h); 10.5 ± 0.92 µM in assay [2] (A549, 48 h). In assay [4], the “antitumor activities (statement in words)” value (“antitumor activities” below) was “good antitumor activities in all three cell lines tested”.

As to `C=CC1=NN(c2ccc(C)cc2)C(=O)/C1=C\c1c(O)c(O)c(C(C)C)c2cc(C)c(-c3c(C)cc4c(C(C)C)c(O)c(O)c(C=O)c4c3O)c(O)c12` [Compound I, (Z)-1,1′,6,6′,7,7′-hexahydroxy-5,5′-diisopropyl-3,3′-dimethyl-8′-((5-oxo-1-(p-tolyl)-3-vinyl-1H-pyrazol-4(5H)-ylidene)methyl)-[2,2′-binaphthalene]-8-carbaldehyde], the IC50 stood at 11.7 ± 0.65 µM in assay [1] (setting [5]), 20.7 ± 0.84 µM in assay [3] (setting [7]) and 18.1 ± 0.72 µM in assay [2] (setting [6]). Besides, the “antitumor activities” value in assay [4] is given as “good antitumor activities in different cell lines”.

With `CC1=NN(c2ccc(Cl)cc2)C(=O)/C1=C\c1c(O)c(O)c(C(C)C)c2cc(C)c(-c3c(C)cc4c(C(C)C)c(O)c(O)c(C=O)c4c3O)c(O)c12` [D, (Z)-8′-((1-(4-chlorophenyl)-3-methyl-5-oxo-1H-pyrazol-4(5H)-ylidene)methyl)-1,1′,6,6′,7,7′-hexahydroxy-5,5′-diisopropyl-3,3′-dimethyl-[2,2′-binaphthalene]-8-carbaldehyde], the IC50 is 24.3 ± 0.91 µM in assay [1] (setting [5]), more than 100 µM in assay [3] (setting [7]) and 36.9 ± 0.83 µM in assay [2] (setting [6]).

Turning to `COC1=NN(c2ccccc2)C(=O)/C1=C\c1c(O)c(O)c(C(C)C)c2cc(C)c(-c3c(C)cc4c(C(C)C)c(O)c(O)c(C=O)c4c3O)c(O)c12` [E, (Z)-1,1′,6,6′,7,7′-hexahydroxy-5,5′-diisopropyl-8′-((3-methoxy-5-oxo-1-phenyl-1H-pyrazol-4(5H)-ylidene)methyl)-3,3′-dimethyl-[2,2′-binaphthalene]-8-carbaldehyde], the IC50 was found to be 17.8 ± 0.95 µM in assay [1] (setting [5]), 26.1 ± 1.8 µM in assay [3] (setting [7]) and 26.7 ± 1.12 µM in assay [2] (setting [6]). The “antitumor activities” value in assay [4] is “good antitumor activities in different cell lines”.

For `COC1=NN(c2ccc(OC)cc2)C(=O)/C1=C\c1c(O)c(O)c(C(C)C)c2cc(C)c(-c3c(C)cc4c(C(C)C)c(O)c(O)c(C=O)c4c3O)c(O)c12` [F], the IC50 in assay [1] (setting [5]) is more than 100 µM; in assay [3] (setting [7]), 58.2 ± 2.1 µM; in assay [2] (setting [6]) it was 65.9 ± 2.84 µM.

`COC1=NN(c2ccc(Cl)cc2)C(=O)/C1=C\c1c(O)c(O)c(C(C)C)c2cc(C)c(-c3c(C)cc4c(C(C)C)c(O)c(O)c(C=O)c4c3O)c(O)c12` [G, (Z)-8′-((1-(4-chlorophenyl)-3-methoxy-5-oxo-1H-pyrazol-4(5H)-ylidene)methyl)-1,1′,6,6′,7,7′-hexahydroxy-5,5′-diisopropyl-3,3′-dimethyl-[2,2′-binaphthalene]-8-carbaldehyde]: the IC50 in assay [1] (setting [5]) is 26.5 ± 1.02 µM; in assay [3] (setting [7]) it was more than 100 µM; in assay [2] (setting [6]), 43.4 ± 1.21 µM. Moreover, the “antitumor activities” value in assay [4] is recorded as “good antitumor activities in different cell lines”.

Take `Cc1cc2c(C(C)C)c(O)c(O)c(C=O)c2c(O)c1-c1c(C)cc2c(C(C)C)c(O)c(O)c(C=O)c2c1O` [Gossypol]: the IC50 in assay [1] (setting [5]) was 11.3 ± 0.28 µM; in assay [3] (setting [7]) it was 20.2 ± 1.3 µM; in assay [2] (setting [6]), 14.9 ± 0.64 µM.

Regarding `C=CC1=NN(c2ccccc2)C(=O)/C1=C\c1c(O)c(O)c(C(C)C)c2cc(C)c(-c3c(C)cc4c(C(C)C)c(O)c(O)c(C=O)c4c3O)c(O)c12` [H, (Z)-1,1′,6,6′,7,7′-hexahydroxy-5,5′-diisopropyl-3,3′-dimethyl-8′-((5-oxo-1-phenyl-3-vinyl-1H-pyrazol-4(5H)-ylidene)methyl)-[2,2′-binaphthalene]-8-carbaldehyde], the IC50 in assay [1] (setting [5]) is more than 100 µM; in assay [3] (setting [7]), 78.7 ± 2.02 µM; in assay [2] (setting [6]), more than 100 µM.

For the compound `C=CC1=NN(c2ccc(Cl)cc2)C(=O)/C1=C\c1c(O)c(O)c(C(C)C)c2cc(C)c(-c3c(C)cc4c(C(C)C)c(O)c(O)c(C=O)c4c3O)c(O)c12` [J, (Z)-8′-((1-(4-chlorophenyl)-5-oxo-3-vinyl-1H-pyrazol-4(5H)-ylidene)methyl)-1,1′,6,6′,7,7′-hexahydroxy-5,5′-diisopropyl-3,3′-dimethyl-[2,2′-binaphthalene]-8-carbaldehyde], the IC50 in assay [1] (setting [5]) turned out to be 13.8 ± 0.85 µM; in assay [3] (setting [7]), 26.2 ± 1.15 µM; in assay [2] (setting [6]) it was 12.7 ± 1.12 µM. Also, the “antitumor activities” value in assay [4] is recorded as “good antitumor activities in different cell lines”.

For the compound `CC1=NN(c2c(C)cccc2Cl)C(=O)/C1=C\c1c(O)c(O)c(C(C)C)c2cc(C)c(-c3c(C)cc4c(C(C)C)c(O)c(O)c(C=O)c4c3O)c(O)c12` [K, (Z)-8′-((1-(2-chloro-6-methylphenyl)-3-methyl-5-oxo-1H-pyrazol-4(5H)-ylidene)methyl)-1,1′,6,6′,7,7′-hexahydroxy-5,5′-diisopropyl-3,3′-dimethyl-[2,2′-binaphthalene]-8-carbaldehyde], the IC50 was more than 100 µM in assay [1] (A498, 48 h); 11.5 ± 1.32 µM in assay [3] (U-251, 48 h); more than 100 µM in assay [2] (A549, 48 h).

As for `C=CC1=NN(c2c(C)cccc2Cl)C(=O)/C1=C\c1c(O)c(O)c(C(C)C)c2cc(C)c(-c3c(C)cc4c(C(C)C)c(O)c(O)c(C=O)c4c3O)c(O)c12` [L, (Z)-8′-((1-(2-chloro-6-methylphenyl)-5-oxo-3-vinyl-1H-pyrazol-4(5H)-ylidene)methyl)-1,1′,6,6′,7,7′-hexahydroxy-5,5′-diisopropyl-3,3′-dimethyl-[2,2′-binaphthalene]-8-carbaldehyde], the IC50 in assay [1] (setting [5]), in assay [3] (setting [7]) and in assay [2] (setting [6]) was more than 100 µM in each case.

Source of the values: patent US9758486B1 (priority 2017, dated 2017).
